Source: patent publication US20260265248A1, “NOVEL PD-L1 INHIBITORS” (AFFIRMA BIOTECH S. L., priority 2023, published 2026)

These compounds were tested against T1, PD-1/PD-L1 (Homo sapiens, UniProt Q9NZQ7) (assay: PD1-PDL1 HTRF assay). Conditions: PD-1/PD-L1 homogenous time-resolved fluorescence (HTRF) binding assay; Tag1-PDL1 5 nM, Tag2-PD1 50 nM.
T1 construct: purchased CisBio
Source text: The CisBio HTRF assay kit, purchased from CisBio only, was employed to determine the IC50 values of compounds. The PD1-PDL1 HTRF assay measures the interactions between the two proteins, PD1 and PDL1. The interaction is detected by using anti-Tag1 labeled with Europium (HTRF donor) which binds to PDL1 and anti-Tag2 labeled with XL665 (HTRF acceptor) which binds to PD1. When the two antibodies are in proximity, the excitation of the donor fluorophore results in FRET emission from the acceptor fluorophore. The presence of inhibitors for such an interaction result in reduction of HTRF signal.
The assay was conducted in 96-well white assay plates. All the reagents, including Tag1-PDL1, Tag2-PD1, Anti-Tag1-PDL1, Anti-Tag2-PD1 were thawed and diluted with PPI Europium Detection buffer to achieve the desired concentration as per the manufacturer's protocol. A 1000 μM stock solution of test inhibitors was prepared in DMSO. The stock solution was diluted in DMSO to prepare 8 concentrations (1000-0.001 μM). These stock solutions were further diluted in PPI Europium detection buffer to prepare 8 working stock solutions (100-0.0001 μM). To the 96-well plate, 2 μL of the test inhibitor working stock solutions were added followed by 4 μL of Tag1-PDL1 (5 nM) and 4 μL of Tag2-PD1 (50 nM). The plate was incubated at room temperature for 15 min. Subsequently, 10 μL of pre-mixed Anti-Tag1-PDL1 and Anti-Tag2-PD1 solution was added. The plate was sealed and incubated at room temperature for 1 h. The HTRF signal was read on Perkin Elmer Envision plate reader using excitation wavelength of 320 nm, emission wavelengths of 620 nm and 665 nm. Results were obtained by calculating the ratio of signal from acceptor at 665 nm to that of signal from donor at 620 nm multiplied by […]. The IC50 values were determined by the Hill equation using GraphPad Prism software.

T1 sequence (Q9NZQ7 19-238 limits assumed): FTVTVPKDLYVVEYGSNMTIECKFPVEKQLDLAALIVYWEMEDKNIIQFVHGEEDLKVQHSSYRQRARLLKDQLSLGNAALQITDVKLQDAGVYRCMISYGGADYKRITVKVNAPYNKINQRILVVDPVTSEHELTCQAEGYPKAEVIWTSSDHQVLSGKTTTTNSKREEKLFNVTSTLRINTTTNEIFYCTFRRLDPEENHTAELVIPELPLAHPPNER

SMILES | IC50
Cc1c(-c2ccc3c(c2)OCCO3)cccc1-c1ccn2c(-c3ccc(CN4CCCCC4C(=O)O)cc3)cnc2c1 (stereo not drawn) [Example 36, 1-(4-(7-(3-(2,3-dihydrobenzo[b][1,4]dioxin-6-yl)-2-methylphenyl)imidazo[1,2-a]pyridin-3-yl)benzyl)piperidine-2-carboxylic acid] | 100 to 1000 nM
COc1cc(-c2cnc3cc(-c4cccc(-c5ccc6c(c5)OCCO6)c4C)ccn23)cc(OC)c1CN1CCC[C@H]1C(=O)O [Example 40, (4-(7-(3-(2,3-dihydrobenzo[b][1,4]dioxin-6-yl)-2-methylphenyl)imidazo[1,2-a]pyridin-3-yl)-2,6-dimethoxybenzyl)-L-proline] | 100 to 1000 nM
Cc1c(-c2ccccc2)cccc1-c1ccn2c(-n3ccc(C(=O)NCCO)n3)cnc2c1 [Example 44, N-(2-hydroxyethyl)-1-(7-(2-methyl-[1,1′-biphenyl]-3-yl)imidazo[1,2-a]pyridin-3-yl)-1H-pyrazole-3-carboxamide] | 100 to 1000 nM
CC(=O)NCCNC(=O)c1ccn(-c2cnc3cc(-c4cccc(-c5ccccc5)c4C)ccn23)n1 [Example 46, N-(2-acetamidoethyl)-1-(7-(2-methyl-[1,1′-biphenyl]-3-yl)imidazo[1,2-a]pyridin-3-yl)-1H-pyrazole-3-carboxamide] | 100 to 1000 nM
Cc1c(-c2ccccc2)cccc1-c1ccn2c(C#CCN3CCC[C@@H]3C(=O)O)cnc2c1 [Example 50, (3-(7-(2-methyl-[1,1′-biphenyl]-3-yl)imidazo[1,2-a]pyridin-3-yl)prop-2-yn-1-yl)-D-proline] | 100 to 1000 nM
Cc1c(-c2ccccc2)cccc1-c1ccn2c(C#CCN3CCC[C@H]3C(=O)O)cnc2c1 [Example 51, (3-(7-(2-methyl-[1,1′-biphenyl]-3-yl)imidazo[1,2-a]pyridin-3-yl)prop-2-yn-1-yl)-L-proline] | 100 to 1000 nM
Cc1c(-c2ccccc2)cccc1-c1ccn2c(-c3ccc(CN4CCCCC4C(=O)O)cc3)nnc2c1 (stereo not drawn) [Example 52, 1-(4-(7-(2-methyl-[1,1′-biphenyl]-3-yl)-[1,2,4]triazolo[4,3-a]pyridin-3-yl)benzyl)piperidine-2-carboxylic acid] | 100 to 1000 nM
Cc1c(-c2ccccc2)cccc1-c1ccn2c(-c3ccc(CN4CCC[C@H]4C(=O)O)cc3)nnc2c1 [Example 53, (4-(7-(2-methyl-[1,1′-biphenyl]-3-yl)-[1,2,4]triazolo [4,3-a]pyridin-3-yl)benzyl)proline] | 100 to 1000 nM
Cc1c(-c2ccccc2)cccc1-c1ccn2c(-c3ccc(CNCCO)cc3)nnc2c1 [Example 54, 2-((4-(7-(2-methyl-[1,1′-biphenyl]-3-yl)-[1,2,4]triazolo[4,3-a]pyridin-3-yl)benzyl)amino)ethan-1-ol] | 100 to 1000 nM
Cc1c(-c2ccccc2)cccc1-c1ccn2c(-c3ccc(CNCC(O)CC(=O)O)cc3)nnc2c1 (stereo not drawn) [Example 55, 3-hydroxy-4-((4-(7-(2-methyl-[1,1′-biphenyl]-3-yl)-[1,2,4]triazolo[4,3-a]pyridin-3-yl)benzyl)amino)butanoic acid] | 100 to 1000 nM
Cc1c(-c2ccccc2)cccc1-c1ccn2c(-c3ccc(CN4CCC[C@@H]4C(=O)O)cc3)nnc2c1 [Example 58, (4-(7-(2-methyl-[1,1′-biphenyl]-3-yl)-[1,2,4]triazolo[4,3-a]pyridin-3-yl)benzyl)-D-proline] | 10 to 100 nM

Second part, the compound after the results:

IC50 | SMILES
100 to 1000 nM | Cc1c(-c2ccc3c(c2)OCCO3)cccc1-c1ccn2c(-c3ccc(CN4CC[C@@H]4C(=O)O)cc3)cnc2c1 [Example 29, (R)-1-(4-(7-(3-(2,3-dihydrobenzo[b][1,4]dioxin-6-yl)-2-methylphenyl)imidazo[1,2-a]pyridin-3-yl)benzyl)azetidine-2-carboxylic acid]
100 to 1000 nM | Cc1c(-c2ccc3c(c2)OCCO3)cccc1-c1ccn2c(-c3ccc(CNCC(O)CC(=O)O)cc3)cnc2c1 (stereo not drawn) [Example 30, 4-((4-(7-(3-(2,3-dihydrobenzo[b][1,4]dioxin-6-yl)-2-methylphenyl)imidazo[1,2-a]pyridin-3-yl)benzyl)amino)-3-hydroxybutanoic acid]
100 to 1000 nM | Cc1c(-c2ccc3c(c2)OCCO3)cccc1-c1ccn2c(-c3ccc(CNC[C@@H](O)CO)cc3)cnc2c1 [Example 31, (R)-3-((4-(7-(3-(2,3-dihydrobenzo[b][1,4]dioxin-6-yl)-2-methylphenyl)imidazo[1,2-a]pyridin-3-yl)benzyl)amino)propane-1,2-diol]
100 to 1000 nM | Cc1c(-c2ccc3c(c2)OCCO3)cccc1-c1ccn2c(-c3ccc(CNC[C@H](O)CO)cc3)cnc2c1 [Example 32, (S)-3-((4-(7-(3-(2,3-dihydrobenzo[b][1,4]dioxin-6-yl)-2-methylphenyl)imidazo[1,2-a]pyridin-3-yl)benzyl)amino)propane-1,2-diol]
100 to 1000 nM | Cc1c(-c2ccc3c(c2)OCCO3)cccc1-c1ccn2c(-c3ccc(CN4CCC[C@H]4C(=O)O)cc3)cnc2c1 [Example 37, (4-(7-(3-(2,3-dihydrobenzo[b][1,4]dioxin-6-yl)-2-methylphenyl)imidazo[1,2-a]pyridin-3-yl)benzyl)proline]
100 to 1000 nM | Cc1c(-c2ccc3c(c2)OCCO3)cccc1-c1ccn2c(-c3ccc(CN4C[C@@H](C(=O)O)C[C@H]4O)cc3)cnc2c1 [Example 38, (3S,5R)-1-(4-(7-(3-(2,3-dihydrobenzo[b][1,4]dioxin-6-yl)-2-methylphenyl)imidazo[1,2-a]pyridin-3-yl)benzyl)-5-hydroxypyrrolidine-3-carboxylic acid]
100 to 1000 nM | Cc1c(-c2ccc3c(c2)OCCO3)cccc1-c1ccn2c(-c3ccc(C(=O)NCC(=O)O)cc3)cnc2c1 [Example 41, (4-(7-(3-(2,3-dihydrobenzo[b][1,4]dioxin-6-yl)-2-methylphenyl)imidazo[1,2-a]pyridin-3-yl)benzoyl)glycine]
100 to 1000 nM | Cc1c(-c2ccc3c(c2)OCCO3)cccc1-c1ccn2c(-c3ccc(C(=O)N4CCC[C@@H]4C(=O)O)cc3)cnc2c1 [Example 42, (4-(7-(3-(2,3-dihydrobenzo[b][1,4]dioxin-6-yl)-2-methylphenyl)imidazo[1,2-a]pyridin-3-yl)benzoyl)-D-proline]
100 to 1000 nM | Cc1c(-c2ccc3c(c2)OCCO3)cccc1-c1ccn2c(-c3ccc(C(=O)N4CCC[C@H]4C(=O)O)cc3)cnc2c1 [Example 43, (4-(7-(3-(2,3-dihydrobenzo[b][1,4]dioxin-6-yl)-2-methylphenyl)imidazo[1,2-a]pyridin-3-yl)benzoyl)-L-proline]
100 to 1000 nM | Cc1c(-c2ccccc2)cccc1-c1ccn2c(-n3ccc(C(=O)NCC(=O)O)n3)cnc2c1 [Example 45, (1-(7-(2-methyl-[1,1′-biphenyl]-3-yl)imidazo[1,2-a]pyridin-3-yl)-1H-pyrazole-3-carbonyl)glycine]
100 to 1000 nM | Cc1c(-c2ccccc2)cccc1-c1ccn2c(-n3ccc(C(=O)NCCC(=O)O)n3)cnc2c1 [Example 47, N 3-(1-(7-(2-methyl-[1,1′-biphenyl]-3-yl)imidazo[1,2-a]pyridin-3-yl)-1H-pyrazole-3-carboxamido)propanoic acid]
10 to 100 nM | Cc1c(-c2ccc3c(c2)OCCO3)cccc1-c1ccn2c(-n3ccc(C(=O)NCC(=O)O)n3)cnc2c1 [Example 48, (1-(7-(3-(2,3-dihydrobenzo[b][1,4]dioxin-6-yl)-2-methylphenyl)imidazo[1,2-a]pyridin-3-yl)-1H-pyrazole-3-carbonyl)glycine]
10 to 100 nM | Cc1c(-c2ccc3c(c2)OCCO3)cccc1-c1ccn2c(-n3ccc(C(=O)NCC(=O)O)n3)nnc2c1 [Example 49, (1-(7-(3-(2,3-dihydrobenzo[b][1,4]dioxin-6-yl)-2-methylphenyl)-[1,2,4]triazolo[4,3-a]pyridin-3-yl)-1H-pyrazole-3-carbonyl)glycine]
10 to 100 nM | Cc1c(-c2ccc3c(c2)OCCO3)cccc1-c1ccn2c(-c3ccc(CN4CCC[C@@H]4C(=O)O)cc3)nnc2c1 [Example 56, (4-(7-(3-(2,3-dihydrobenzo[b][1,4]dioxin-6-yl)-2-methylphenyl)-[1,2,4]triazolo[4,3-a]pyridin-3-yl)benzyl)-D-proline]
10 to 100 nM | Cc1c(-c2ccc3c(c2)OCCO3)cccc1-c1ccn2c(-c3ccc(CN4CCC[C@H]4C(=O)O)cc3)nnc2c1 [Example 57, (4-(7-(3-(2,3-dihydrobenzo[b][1,4]dioxin-6-yl)-2-methylphenyl)-[1,2,4]triazolo[4,3-a]pyridin-3-yl)benzyl)-L-proline]
100 to 1000 nM | Cc1c(-c2ccc3c(c2)OCCO3)cccc1-c1ccn2c(-c3ccc(CN4C[C@H](O)C[C@H]4C(=O)O)cc3)nnc2c1 [Example 60, (25,4R)-1-(4-(7-(3-(2,3-dihydrobenzo[b][1,4]dioxin-6-yl)-2-methylphenyl)-[1,2,4]triazolo[4,3-a]pyridin-3-yl)benzyl)-4-hydroxypyrrolidine-2-carboxylic acid]
